# Results from US11000033B2, “Ketone or oxime compound, and herbicide” (NISSAN CHEMICAL CORPORATION, priority 2014, dated 2021).
# How the values were obtained:
# Type in all cases: in vivo
# [1] = test system: Echinochloa oryzacola Vasing.; assay: Test Example 1: herbicidal activity, application before weed generation in submerged conditions (symbol A); conditions: application herbicide amount 320 g/ha
# Outline: (§1)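 0–5 visual score, 3 wk post-application. Submerged pots, alluvial soil, water 4 cm; seeds sown mixed, rice at 2.5 leaves transplanted. Emulsion diluted to predetermined dose, applied to water surface at sowing. 25–30 °C greenhouse.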
# [2] = test system: Scirpus juncoides; assay: Test Example 1: herbicidal activity, application before weed generation in submerged conditions (symbol B); conditions: application herbicide amount 320 g/ha
# Outline: as §1
# [3] = test system: Monochoria vaginalis; assay: Test Example 1: herbicidal activity, application before weed generation in submerged conditions (symbol C); conditions: application herbicide amount 320 g/ha
# Source text: Herbicidal Activity Test by Application Before Weed Generation in Submerged Conditions
# After alluvial soil was placed into 1/10000 are of Wagner pot, water was poured and mixed to form a submerged condition having a water depth of 4 cm. Seeds of Echinochloa oryzacola Vasing., Scirpus juncoides, and Monochoria vaginalis were sowed in a mixed manner in the above pot and thereafter 2.5 leaf stage rice plant seedlings were transplanted thereto. On the day of sowing seeds, the emulsion agent of the compound of the present invention prepared in accordance with Formulation Example 2 was diluted with water so as to be a predetermined herbicide amount and the diluted emulsion agent was applied to the surface of the water. The pot was placed in a greenhouse of 25° C. to 30° C. to grow plant. 3 weeks later from the herbicide application, the effect to each plant was investigated in accordance with the following criteria.
# 5 Herbicidal ratio of 90% or more (almost completely withered)
# 4 Herbicidal ratio of 70% or higher and lower than 90%
# 3 Herbicidal ratio of 40% or higher and lower than 70%
# 2 Herbicidal ratio of 20% or higher and lower than 40%
# 1 Herbicidal ratio of 5% or higher and lower than 20%
# 0 Herbicidal ratio of 5% or lower (almost no effect)
# [4] = test system: transplanted rice plant; assay: Test Example 1: effect on crop, application before weed generation in submerged conditions (symbol a); conditions: application herbicide amount 320 g/ha
# Outline: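 Alluvial soil pots flooded to 4 cm water, sown with Echinochloa oryzacola, Scirpus juncoides and Monochoria vaginalis, then transplanted with 2.5 leaf stage rice seedlings; pre-emergence application. Greenhouse 25° C. to 30° C.; scored 0–5 by herbicidal ratio 3 weeks after application.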
# [5] = test system: Echinochloa crus-galli var. crus-galli; assay: Test Example 3: herbicidal effect by foliage application, Wagner pot (symbol H); conditions: application herbicide amount 320 g/ha
# Outline: (§2)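 Foliar spray of water-diluted emulsion formulation at a predetermined herbicide amount onto 14-day-old plants in flooded alluvial soil (water depth 0.1–0.5 cm), greenhouse 25–30 °C; rice sown alongside. Scored 3 wk post-application on set criteria.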
# [6] = test system: Leptochloa chinensis; assay: Test Example 3: herbicidal effect by foliage application, Wagner pot (symbol D); conditions: application herbicide amount 320 g/ha
# Outline: as §2
# [7] = test system: Cyperus difformis; assay: Test Example 3: herbicidal effect by foliage application, Wagner pot (symbol E); conditions: application herbicide amount 320 g/ha
# Outline: as §2
# [8] = test system: directly sowed rice plant; assay: Test Example 3: effect on crop by foliage application, Wagner pot (symbol b); conditions: application herbicide amount 320 g/ha
# Outline: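 Alluvial soil in a 1/10000-are Wagner pot was flooded to a water depth of 0.1–0.5 cm. Echinochloa crus-galli var. crus-galli, Leptochloa chinensis, Cyperus difformis and rice were sown into it and grown in a greenhouse at 25–30 °C.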
# [9] = test system: Digitaria ciliaris; assay: Test Example 5: herbicidal effect by foliage application, plastic box (symbol F); conditions: 320 g/ha, 3 weeks after application
# Outline: (§3)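 Seeds were sown in sterilized diluvial soil, covered with about 1.5 cm of soil and grown 14 days in a greenhouse at 25° C. to 30° C. An emulsifiable formulation diluted in water to a set rate was sprayed over foliage, and injury was scored 3 weeks later.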
# [10] = test system: Setaria viridis; assay: Test Example 5: herbicidal effect by foliage application, plastic box (symbol G); conditions: 320 g/ha, 3 weeks after application
# Outline: as §3
# [11] = test system: Echinochloa crus-galli var. crus-galli; assay: Test Example 5: herbicidal effect by foliage application, plastic box (symbol H); conditions: 320 g/ha, 3 weeks after application
# Outline: as §3
# [12] = test system: Avena fatua; assay: Test Example 5: herbicidal effect by foliage application, plastic box (symbol I); conditions: 320 g/ha, 3 weeks after application
# Outline: as §3
# [13] = test system: Alopecurus myosuroides; assay: Test Example 5: herbicidal effect by foliage application, plastic box (symbol J); conditions: 320 g/ha, 3 weeks after application
# Outline: as §3
# [14] = test system: Lolium multiflorum Lam.; assay: Test Example 5: herbicidal effect by foliage application, plastic box (symbol K); conditions: 320 g/ha, 3 weeks after application
# Outline: as §3
# [15] = test system: Apera spica-venti; assay: Test Example 5: herbicidal effect by foliage application, plastic box (symbol L); conditions: 320 g/ha, 3 weeks after application
# Outline: as §3
# [16] = test system: Abutilon theophrasti; assay: Test Example 5: herbicidal effect by foliage application, plastic box (symbol M); conditions: 320 g/ha, 3 weeks after application
# Outline: as §3
# [17] = test system: Amaranthus retroflexus; assay: Test Example 5: herbicidal effect by foliage application, plastic box (symbol N); conditions: 320 g/ha, 3 weeks after application
# Outline: as §3
# [18] = test system: Chenopodium album; assay: Test Example 5: herbicidal effect by foliage application, plastic box (symbol O); conditions: 320 g/ha, 3 weeks after application
# Outline: as §3
# [19] = test system: Stellaria media; assay: Test Example 5: herbicidal effect by foliage application, plastic box (symbol P); conditions: 320 g/ha, 3 weeks after application
# Outline: as §3
# [20] = test system: Galium spurium; assay: Test Example 5: herbicidal effect by foliage application, plastic box (symbol Q); conditions: 320 g/ha, 3 weeks after application
# Outline: as §3
# [21] = test system: Veronica persica; assay: Test Example 5: herbicidal effect by foliage application, plastic box (symbol R); conditions: 320 g/ha, 3 weeks after application
# Outline: as §3
# [22] = test system: corn; assay: Test Example 5: effect on crop by foliage application, plastic box (symbol c); conditions: 320 g/ha, 3 weeks after application
# Outline: (§4)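 Sterilized diluvial soil, plastic box (21 × 13 × 7 cm); spot sowing, ~1.5 cm soil cover; greenhouse 25–30° C.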
# [23] = test system: soybean; assay: Test Example 5: effect on crop by foliage application, plastic box (symbol d); conditions: 320 g/ha, 3 weeks after application
# Outline: as §4
# [24] = test system: rice plant; assay: Test Example 5: effect on crop by foliage application, plastic box (symbol b); conditions: 320 g/ha, 3 weeks after application
# Outline: as §4
# [25] = test system: wheat; assay: Test Example 5: effect on crop by foliage application, plastic box (symbol e); conditions: 320 g/ha, 3 weeks after application
# Outline: as §4
# [26] = test system: beet; assay: Test Example 5: effect on crop by foliage application, plastic box (symbol f); conditions: 320 g/ha, 3 weeks after application
# Outline: as §4
# [27] = test system: rapeseed; assay: Test Example 5: effect on crop by foliage application, plastic box (symbol g); conditions: 320 g/ha, 3 weeks after application
# Outline: as §4
Compound,"Herbicidal effect grade, A: Echinochloa oryzacola Vasing. [1]","Herbicidal effect grade, B: Scirpus juncoides [2]","Herbicidal effect grade, C: Monochoria vaginalis [3]","Effect grade on crop, a: transplanted rice plant [4]","herbicidal effect on H (Echinochloa crus-galli var. crus-galli), grade 0-5 [5]","herbicidal effect on D (Leptochloa chinensis), grade 0-5 [6]","herbicidal effect on E, grade 0-5 [7]","effect on crop b (directly sowed rice plant), grade 0-5 [8]","F: Digitaria ciliaris, herbicidal effect (criteria of Test Example 1) [9]","G: Setaria viridis, herbicidal effect (criteria of Test Example 1) [10]","H: Echinochloa crus-galli var. crus-galli, herbicidal effect (criteria of Test Example 1) [11]","I: Avena fatua, herbicidal effect (criteria of Test Example 1) [12]","J: Alopecurus myosuroides, herbicidal effect (criteria of Test Example 1) [13]","K: Lolium multiflorum Lam., herbicidal effect (criteria of Test Example 1) [14]","L: Apera spica-venti, herbicidal effect (criteria of Test Example 1) [15]","M: Abutilon theophrasti, herbicidal effect (criteria of Test Example 1) [16]","N: Amaranthus retroflexus, herbicidal effect (criteria of Test Example 1) [17]","O: Chenopodium album, herbicidal effect (criteria of Test Example 1) [18]","P: Stellaria media, herbicidal effect (criteria of Test Example 1) [19]","Q: Galium spurium, herbicidal effect (criteria of Test Example 1) [20]",also measured
CCCC=Cc1cc(C)c(C2=C(O)CC(CC(C)=O)C2=O)c(C)c1 (stereo not drawn) [7-022],4 (Herbicidal ratio of 70% or higher and lower than 90%),2 (Herbicidal ratio of 20% or higher and lower than 40%),3 (Herbicidal ratio of 40% or higher and lower than 70%),3 (Herbicidal ratio of 40% or higher and lower than 70%),0 (Herbicidal ratio of 5% or lower (almost no effect)),4 (Herbicidal ratio of 70% or higher and lower than 90%),0 (Herbicidal ratio of 5% or lower (almost no effect)),0 (Herbicidal ratio of 5% or lower (almost no effect)),0 (Herbicidal ratio of 5% or lower (almost no effect)),0 (Herbicidal ratio of 5% or lower (almost no effect)),1 (Herbicidal ratio of 5% or higher and lower than 20%),0 (Herbicidal ratio of 5% or lower (almost no effect)),0 (Herbicidal ratio of 5% or lower (almost no effect)),2 (Herbicidal ratio of 20% or higher and lower than 40%),0 (Herbicidal ratio of 5% or lower (almost no effect)),0 (Herbicidal ratio of 5% or lower (almost no effect)),0 (Herbicidal ratio of 5% or lower (almost no effect)),0 (Herbicidal ratio of 5% or lower (almost no effect)),0 (Herbicidal ratio of 5% or lower (almost no effect)),0 (Herbicidal ratio of 5% or lower (almost no effect)),"R: Veronica persica, herbicidal effect (criteria of Test Example 1) [21]: 0 (Herbicidal ratio of 5% or lower (almost no effect)); c: corn, effect on crop (criteria of Test Example 1) [22]: 0 (Herbicidal ratio of 5% or lower (almost no effect)); d: soybean, effect on crop (criteria of Test Example 1) [23]: 0 (Herbicidal ratio of 5% or lower (almost no effect)); b: directly sowed rice plant, effect on crop (criteria of Test Example 1) [24]: 0 (Herbicidal ratio of 5% or lower (almost no effect)); e: wheat, effect on crop (criteria of Test Example 1) [25]: 0 (Herbicidal ratio of 5% or lower (almost no effect)); f: beet, effect on crop (criteria of Test Example 1) [26]: 0 (Herbicidal ratio of 5% or lower (almost no effect)); g: rapeseed, effect on crop (criteria of Test Example 1) [27]: 0 (Herbicidal ratio of 5% or lower (almost no effect))"
COCCOc1cc(C)c(C2=C(O)CC(CC(C)=NOC)C2=O)c(C)c1 (stereo not drawn) [6-098],0 (Herbicidal ratio of 5% or lower (almost no effect)),1 (Herbicidal ratio of 5% or higher and lower than 20%),0 (Herbicidal ratio of 5% or lower (almost no effect)),1 (Herbicidal ratio of 5% or higher and lower than 20%),3 (Herbicidal ratio of 40% or higher and lower than 70%),5 (Herbicidal ratio of 90% or more (almost completely withered)),4 (Herbicidal ratio of 70% or higher and lower than 90%),5 (Herbicidal ratio of 90% or more (almost completely withered)),3 (Herbicidal ratio of 40% or higher and lower than 70%),3 (Herbicidal ratio of 40% or higher and lower than 70%),2 (Herbicidal ratio of 20% or higher and lower than 40%),1 (Herbicidal ratio of 5% or higher and lower than 20%),3 (Herbicidal ratio of 40% or higher and lower than 70%),5 (Herbicidal ratio of 90% or more (almost completely withered)),4 (Herbicidal ratio of 70% or higher and lower than 90%),0 (Herbicidal ratio of 5% or lower (almost no effect)),0 (Herbicidal ratio of 5% or lower (almost no effect)),0 (Herbicidal ratio of 5% or lower (almost no effect)),0 (Herbicidal ratio of 5% or lower (almost no effect)),0 (Herbicidal ratio of 5% or lower (almost no effect)),"R: Veronica persica, herbicidal effect (criteria of Test Example 1) [21]: 0 (Herbicidal ratio of 5% or lower (almost no effect)); c: corn, effect on crop (criteria of Test Example 1) [22]: 1 (Herbicidal ratio of 5% or higher and lower than 20%); d: soybean, effect on crop (criteria of Test Example 1) [23]: 0 (Herbicidal ratio of 5% or lower (almost no effect)); b: directly sowed rice plant, effect on crop (criteria of Test Example 1) [24]: 2 (Herbicidal ratio of 20% or higher and lower than 40%); e: wheat, effect on crop (criteria of Test Example 1) [25]: 2 (Herbicidal ratio of 20% or higher and lower than 40%); f: beet, effect on crop (criteria of Test Example 1) [26]: 0 (Herbicidal ratio of 5% or lower (almost no effect)); g: rapeseed, effect on crop (criteria of Test Example 1) [27]: 0 (Herbicidal ratio of 5% or lower (almost no effect))"
